According to US20150359847A1, “METHOD AND COMPOSITION FOR CONFERRING NEUROPROTECTION” (BLOOD SYSTEMS RESEARCH INSTITUTE, priority 2014, published 2015):

Assays:
[1] = test system: phospho-AKT(Ser473) in SH-SY5Y cells; assay: Akt (Ser473) phosphorylation in differentiated SH-SY5Y cells (antibody array, western blot, Phosflow); format: cell-based, human
Procedure: SH-SY5Y cells were obtained from ATCC (Cat# CRL-2266, Manassas, Va.) and were cultured in DMEM and 10% FBS up to passage 10. For differentiation of SH-SY5Y cells into a neuronal phenotype, cells were first plated in DMEEM+10% FBS for 24 hrs before exchanging media in DMEM+1% FBS 10 μM retinoic acid. Differentiation was performed for 3 days before experimentation. Hippocampal neurons were prepared according to the protocol by Beaudoin et al. (Nature Protocols 2012; 7(9):1741-1754) with minor modifications. In brief, after trypsin digestion of hippocampi isolated from P1 mouse pups single cell suspensions was created by trituration and plated onto Biocoat™ poly-D-lysine coated 12-well plates (Cat#354470, BD Biosciences, San Jose, Calif.). 2 pups were used per well and cell suspensions were incubated for 10 minutes per well for a total of 6 wells. The serial incubation allowed for variation in cell densities applicable to different experiments but also contributed to the reduction in non-neuronal cells. Typically wells 1-2 were pooled for western blotting and wells 4-5 were used for imaging following treatments. After the initial plating cells were incubated for 2 hrs before media was completely exchanged for maintenance media that was supplemented with 1 μM of the anti-mitotic cytosine arabinoside in order to further reduce non-neuronal cells. For western blot, cells were cultured for 7 days before experimentation. Half of maintenance media was exchanged on day 2 and day 5. For morphology experiments, treatments were initiated upon the introduction of maintenance media and was renewed 48 hrs later for a further 24 hrs of treatment. Experiments were terminated by fixation for 20 minutes with 4% paraformaldehyde after which cells were stored at 4° C. in PBS prior to staining protocols.
(§1) Pathscan Antibody™ array kits were purchased from Cell Signaling Technologies (Danvers, Mass.). PathScan® RTK signaling antibody array kit (Fluorescent Readout, Cat#7949) and PathScan™ Akt signaling antibody array kit (Fluorescent Readout, Cat#9700) were performed as per manufacturer's instructions. Imaging was performed on a LI-COR Odyssey™ infrared scanner and pixel densities measured by in house LI-COR Image™ suite software.
After experimentation, SH-SY5Y cells were detached from culture ware via trypsin digestion and rapidly mixed with an equal volume of BD cytofix fixation buffer (Cat#554655. BD Biosciences, San Jose, Calif.). After wash steps with PBS cells were permeabilized with BD phosflow Perm Buffer III (Cat#558050. BD Biosciences, San Jose, Calif.) and incubated on ice for 30 mins. After washing in BD stain buffer (Cat#554657. BD Biosciences, San Jose, Calif.) cells were counted and 1×10^6 cells were used antibody incubation. Negative IgG compensation control was obtained using ABC control beads (Cat# A10344. Life Technologies, Grand Island, N.Y.). Antibody incubations were conducted for 30 mins at RT in the dark. Following wash steps the volume was adjusted to 500 μl and results obtained using and LSR II flow cytometer and analyzed using Flowjo™ cytometric analytical software version 8.8.7.
(§2) Cell lysates for western blotting were prepared with RIPA buffer (Cat#89900. Thermofisher Scientific, Rockford, Ill.) supplemented with phosphatase inhibitor cocktail 2 (Cat# P5726. Sigma, St Louis, Mo.), phosphatase inhibitor cocktail 3 (Cat# P0044. Sigma, St Louis, Mo.) and complete protease inhibitor (Cat#1862209. Thermofisher Scientific, Rockford, Ill.). Complete homogenization was ensured by brief sonication using a Branson Sonifier 150, (Branson Ultrasonics Corporation, Danbury, Conn.). Protein content was quantified with a Pierce BCA protein assay kit per manufacturer's instructions (Cat#23225. Thermofisher Scientific, Rockford, Ill.).
(§3) Lysates was analyzed in conjuncture with the LI-COR Odyssey™ infra-red imaging system. […]

[2] = test system: S6 Ribosomal Protein (S235/236) in SH-SY5Y cells; assay: S6 Ribosomal Protein (S235/236) phosphorylation in SH-SY5Y cells; format: cell-based, human; conditions: 10 μM GM6001, 15 minutes
Procedure: (§4) SH-SY5Y cells were obtained from ATCC (Cat# CRL-2266, Manassas, Va.) and were cultured in DMEM and 10% FBS up to passage 10. For differentiation of SH-SY5Y cells into a neuronal phenotype, cells were first plated in DMEEM+10% FBS for 24 hrs before exchanging media in DMEM+1% FBS 10 μM retinoic acid. Differentiation was performed for 3 days before experimentation. Hippocampal neurons were prepared according to the protocol by Beaudoin et al. (Nature Protocols 2012; 7(9):1741-1754) with minor modifications. In brief, after trypsin digestion of hippocampi isolated from P1 mouse pups single cell suspensions was created by trituration and plated onto Biocoat™ poly-D-lysine coated 12-well plates (Cat#354470, BD Biosciences, San Jose, Calif.). 2 pups were used per well and cell suspensions were incubated for 10 minutes per well for a total of 6 wells. The serial incubation allowed for variation in cell densities applicable to different experiments but also contributed to the reduction in non-neuronal cells. […]
as §1
as §2, with “Complete homogenization was ensured by brief sonication using a Branson Sonifier 150, (Branson Ultrasonics Corporation, Danbury, Conn.).” left out
as §3

MMP-2 [3] = target: T1, MMP-2 (Homo sapiens, UniProt P08253); assay: SensoLyte Fluorimetric MMP-2 Activity Assay; format: biochemical; conditions: GM6001
T1 sequence (P08253 110-660): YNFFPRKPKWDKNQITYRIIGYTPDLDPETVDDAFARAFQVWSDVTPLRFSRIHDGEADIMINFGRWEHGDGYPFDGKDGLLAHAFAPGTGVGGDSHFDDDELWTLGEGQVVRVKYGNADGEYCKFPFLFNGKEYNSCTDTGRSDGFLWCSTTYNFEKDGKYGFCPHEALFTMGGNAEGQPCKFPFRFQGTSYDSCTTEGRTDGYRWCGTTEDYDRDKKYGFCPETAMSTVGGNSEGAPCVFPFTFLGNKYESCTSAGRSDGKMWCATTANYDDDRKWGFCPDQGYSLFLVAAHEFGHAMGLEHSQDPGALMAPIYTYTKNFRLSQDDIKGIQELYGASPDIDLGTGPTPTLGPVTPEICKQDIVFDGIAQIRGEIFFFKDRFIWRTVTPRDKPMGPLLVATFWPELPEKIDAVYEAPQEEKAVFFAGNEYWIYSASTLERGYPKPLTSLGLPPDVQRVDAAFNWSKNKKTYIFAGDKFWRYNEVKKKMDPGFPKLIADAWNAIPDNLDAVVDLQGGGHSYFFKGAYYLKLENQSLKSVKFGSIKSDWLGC
Source text: (§5) SensoLyte Fluorimetric MMP-2 Activity Assay Kit™ (Cat#71151) and SensoLyte Fluorimetric MMP-9 Activity Assay Kit™ (Cat#71155) were purchased from AnaSpec (Fremont, Calif.) and performed per manufacturer's instructions.

MMP-9 [4] = target: T2, MMP-9 (Homo sapiens, UniProt P14780); assay: SensoLyte Fluorimetric MMP-9 Activity Assay; format: biochemical; conditions: GM6001
Source text: as §5
Target sequence in this assay (P14780 94-707, species assumed): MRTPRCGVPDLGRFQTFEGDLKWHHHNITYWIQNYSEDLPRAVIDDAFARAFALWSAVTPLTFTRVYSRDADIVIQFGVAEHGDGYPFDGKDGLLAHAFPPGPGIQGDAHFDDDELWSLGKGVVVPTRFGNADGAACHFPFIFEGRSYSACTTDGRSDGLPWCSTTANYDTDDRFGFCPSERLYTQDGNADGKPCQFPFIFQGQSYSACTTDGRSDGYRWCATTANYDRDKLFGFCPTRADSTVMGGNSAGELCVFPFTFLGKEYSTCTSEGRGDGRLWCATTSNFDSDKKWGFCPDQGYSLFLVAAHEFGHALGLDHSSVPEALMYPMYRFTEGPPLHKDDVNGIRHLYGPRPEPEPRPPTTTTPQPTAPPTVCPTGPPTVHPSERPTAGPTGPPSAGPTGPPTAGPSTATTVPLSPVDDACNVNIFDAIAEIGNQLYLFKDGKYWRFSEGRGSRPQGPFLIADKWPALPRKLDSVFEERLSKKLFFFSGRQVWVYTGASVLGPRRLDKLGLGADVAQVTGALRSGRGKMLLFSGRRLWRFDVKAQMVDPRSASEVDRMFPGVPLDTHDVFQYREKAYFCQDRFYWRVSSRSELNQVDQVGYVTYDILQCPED

MMP-2 [5] = target: MMP-2 (UniProt P08253); assay: cell-based or functional assay
MMP-9 [6] = target: T2, MMP-9; assay: cell-based or functional assay
Target sequence in this assay (P14780 107-707 limits assumed): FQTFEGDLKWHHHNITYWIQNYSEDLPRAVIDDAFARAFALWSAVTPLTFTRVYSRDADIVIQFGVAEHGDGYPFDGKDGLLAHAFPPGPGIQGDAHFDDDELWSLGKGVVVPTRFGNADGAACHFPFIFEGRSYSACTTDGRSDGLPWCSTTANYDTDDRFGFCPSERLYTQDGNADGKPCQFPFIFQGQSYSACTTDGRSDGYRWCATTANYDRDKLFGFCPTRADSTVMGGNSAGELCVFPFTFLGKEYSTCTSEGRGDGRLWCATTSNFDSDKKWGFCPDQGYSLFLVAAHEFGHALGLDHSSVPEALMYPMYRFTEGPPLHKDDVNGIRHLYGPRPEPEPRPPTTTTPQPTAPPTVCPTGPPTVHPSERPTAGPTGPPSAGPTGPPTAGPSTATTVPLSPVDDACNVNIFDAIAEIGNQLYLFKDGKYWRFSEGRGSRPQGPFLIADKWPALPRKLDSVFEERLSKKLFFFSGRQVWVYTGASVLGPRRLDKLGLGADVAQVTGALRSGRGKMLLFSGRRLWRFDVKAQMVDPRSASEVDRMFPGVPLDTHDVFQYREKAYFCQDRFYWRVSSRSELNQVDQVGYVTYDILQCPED

[7] = Brain distribution of IV infra-red tagged TIMP3 post-TBI; format: in vivo, mouse; conditions: coronal section through impact site, n=2
Source text: FIGS. 2A-2B are graphical representations depicting various data relating to intravenous TIMP3 which preserves vulnerable neuronal populations in the hippocampus. (A) Coronal section through the impact site showing target coverage following IV administration of an infra-red tagged TIMP3. Spectrum bar indicates the intensity of the distribution. […] (B) NeuN staining of post-mitotic mature neurons 7 days post-TBI. Representative photomi-crographs of ipsilateral hippocampi from the 3 groups show NeuN staining in the granule cell layer (GCL) and Hilus (HL) of the dentate gyrus. Highlighted area panels show enhanced view of NeuN+ve hilar interneurons. Scale bar=100 μm. Lower panel, quantification of NeuN+ve neurons in the HL. n=4, 4 section per animal, mean±s.e.m. […] (C) DCX staining of neural progenitors/immature neurons 7 days post-TBI. Representative photomi-crographs of ipsilateral hippocampi from the 3 groups showing DCX staining in the subgranule zone (SGZ) of the dentate gyrus. Highlighted area panels show enhanced view of DCX positive immature neurons. […] Lower panel, quantification of DCX+ve neurons, n=4, 4 sections per animal, mean±s.e.m.
Subsequently, the inventors sought to determine the effects IV TIMP3 post-TBI on hippocampal neuronal populations. […] To further examine the effects of TIMP3 on neuronal cells the presence of neural progenitors was quantified by DCX staining. […]

hippocampal neurons = assay: Sholl analysis of isolated hippocampal neurons; format: cell-based, mouse; conditions: shRNA vs scrambled sequence (SCR); 7 days post-transfection
Procedure: as §4
Sholl analysis on processed images of isolated hippocampal neurons was conducted using the Fiji derivation of Image J. (Hypertext Transfer Protocol://Fiji.sc.Fiji). […] After neurites had been traced the images were rendered as an analyzed skeleton and Sholl analysis was run on the image from the Analyze menu option.

mTOR = assay: Real-time PCR of mTOR message in transfected hippocampal neurons; format: cell-based, mouse; conditions: 7 days post-transfection; during TIMP3 treatment; relative to actin
Procedure: Primary hippocampal neuron suspensions were transfected post-trituration and prior to plating. Neurons were ‘Nucleofected’ using a 4D-Nucleofector™ System (Lonza, Walkersville, Md.) in conjunction with a P3 Primary Cell 4D-Nucleofector® X Kit. In brief, 5×10^5 cells were nucleofected with 1.5 μg DNA resuspended in 100 μl of P3 solution after which cells were plated and cultured per normal protocol.
Plasmid vector pENN.AAV.U6.ShRLuc.CMV.eGFP.SV40 was provided by the Penn vector core, University of Pennsylvania, (Philadelphia, Pa.). mTOR shRNA sequence was chosen based on the previous publication by Jaworrski et al (43). Sequence ‘mTOR3071’ was chosen based on complete sequence identity between rat and mouse genes. Scrambled sequence (SCR) was designed using the online scramble design tool by genscript on the World Wide Web at genscript.com/ssl-bin/app/scramble. […]
Cells were lysed using 0.7 mL of QIAzol™ reagent (Qiagen, Valencia Calif.), followed by 15 min centrifugation at 12,000 g at 4° C. […] Quantitative real-time PCR measuring mouse-specific mTOR and Beta-actin (ACTB) genes using Taqman™ real time PCR was performed using the ABI ViiA 7 Real-Time PCR System™. Raw cycle threshold (Ct) numbers of amplified mTOR gene products were normalized to the housekeeping gene ACTB to control for cDNA input amounts. mRNA relative copy number was determined using the comparative Ct method.

For CO[C@H]1C[C@@H]2CC[C@@H](C)[C@@](O)(O2)C(=O)C(=O)N2CCCC[C@H]2C(=O)O[C@H]([C@H](C)C[C@@H]2CC[C@@H](O)[C@H](OC)C2)CC(=O)[C@H](C)/C=C(\C)[C@@H](O)[C@@H](OC)C(=O)[C@H](C)C[C@H](C)/C=C/C=C/C=C/1C [rapamycin, Rapamycin, reference compound], the “Akt (Ser473) phosphorylation with rapamycin, western blot” value ([1]; rapamycin pre-treatment with TIMP3) was “not inhibited”.

In the case of CNC(=O)[C@H](Cc1c[nH]c2ccccc12)NC(=O)[C@@H](CC(=O)NO)CC(C)C [GM6001, reference compound], the “phosphorylation of Akt (Ser473), western blot” value ([1]; 10 μM GM6001, 15 minutes) is reported as “did not result in increased phosphorylation”, the “phosphorylation of S6RP (S235/236), western blot” value [2] is reported as “did not result in increased phosphorylation” and the “MMP-2 inhibition (Sensolyte FRET assay)” value (MMP-2 [3]) is reported as “complete MMP inhibition”. For the same molecule, the “MMP-9 inhibition (Sensolyte FRET assay)” value (MMP-9 [4]) was “complete MMP inhibition”.

In the case of “Recombinant TIMP3 (tissue inhibitor of matrix metalloproteinase-3) (from UniProt P35625 24-211)”, the Sensolyte FRET assay of MMP-2 enzyme activity; TIMP3 concentration that gives full inhibition (MMP-2 [5]) is reported as 1 µg/mL and the Sensolyte FRET assay of MMP-9 enzyme activity; TIMP3 concentration that gives full inhibition (MMP-9 [6]) is reported as 1 µg/mL.

B1: infra-red tagged TIMP3: Infra-red tagged version of recombinant TIMP3, obtained from Amgen Inc. (protein, UniProt P35625 24-211, looked up)
Metalloproteinase inhibitor 3: CTCSPSHPQDAFCNSDIVIRAKVVGKKLVKEGPFGTLVYTIKQMKMYRGFTKMPHVQYIHTEASESLCGLKLEVNKYQYLLTGRVYDGKMYTGLCNFVERWDQLTLSQRKGLNYRYHLGCNCKIKSCYYLPCFVTSKNECLWTDMLSNFGYPGYQSKHYACIRQKGGYCSWYRGWAPPDKSIINATDP
modifications: infra-red dye label
In the case of B1, the “penetrance into the ipsilateral hippocampus after IV administration” value [7] is reported as “penentrance of TIMP3 into the ipsilateral hippocampus”.

B2: shRNA against mTOR: shRNA sequence mTOR3071 (SEQ ID NO: 1) cloned into plasmid pENN.AAV.U6.ShRLuc.CMV.eGFP.SV40 (nucleic acid)
guide: GGAUCCGAGCCACATCCGTCCCTACTTCAAGAGAGTAGGGACGGATGTGGCTCTTTTTGAAUCC
For B2, the “effect on TIMP3-promoted neurite outgrowth (Sholl analysis)” value (hippocampal neurons) was “significantly inhibited the effects of TIMP3 on neurite outgrowth” and the “reduction of mTOR message levels compared to SCR” value (mTOR) was “approximately 50%”.
